From patent US20100292266A1, “Oxazolyl Piperidine Modulators of Fatty Acid Amide Hydrolase” (priority 2006, published 2010)

Assays:
Rat FAAH = molecular target: T1, Rat FAAH (Rattus norvegicus, UniProt P97612); experiment: Assay Method 2: FAAH assay, 3H-anandamide hydrolysis in cell homogenate; type: biochemical; conditions: transfected SK-N-MC cell homogenate, 80 nM 3H-AEA, 1 h rt, > = solubility limit or highest concentration tested
T1 construct: expressed in transfected cells
T1 sequence (P97612 1-579): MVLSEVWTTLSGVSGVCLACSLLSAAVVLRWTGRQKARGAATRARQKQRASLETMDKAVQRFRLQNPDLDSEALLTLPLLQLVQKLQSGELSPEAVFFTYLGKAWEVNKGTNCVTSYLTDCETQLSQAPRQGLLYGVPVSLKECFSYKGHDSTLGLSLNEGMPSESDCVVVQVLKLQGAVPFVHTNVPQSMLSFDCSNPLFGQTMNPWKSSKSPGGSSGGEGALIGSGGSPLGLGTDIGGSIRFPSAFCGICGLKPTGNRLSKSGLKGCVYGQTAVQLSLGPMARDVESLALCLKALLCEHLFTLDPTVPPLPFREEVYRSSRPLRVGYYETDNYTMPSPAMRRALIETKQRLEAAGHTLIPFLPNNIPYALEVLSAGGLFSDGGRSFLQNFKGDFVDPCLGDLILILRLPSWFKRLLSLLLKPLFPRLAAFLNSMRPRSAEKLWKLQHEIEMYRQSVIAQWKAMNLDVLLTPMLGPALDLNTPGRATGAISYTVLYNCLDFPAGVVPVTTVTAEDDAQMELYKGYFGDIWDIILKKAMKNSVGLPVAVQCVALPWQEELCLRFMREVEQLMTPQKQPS
How it was run: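 Homogenate of SK-N-MC cells stably transfected with rat FAAH cDNA (G418-selected clones) incubated with compound and 80 nM final [3H]-anandamide for 1 h. Released [3H]-ethanolamine separated on activated charcoal filters by centrifugation and counted by scintillation. ">" values mark solubility limit or top concentration tested.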

FAAH = molecular target: T2, FAAH (Homo sapiens, UniProt O00519); experiment: Assay Method 1: FAAH assay, 3H-anandamide hydrolysis in cell homogenate; type: biochemical; design: expressed in transfected cells; conditions: T84 or transfected SK-N-MC cell homogenate, 80 nM 3H-AEA, 1 h rt, > = solubility limit or highest concentration tested
T2 sequence (O00519 1-579): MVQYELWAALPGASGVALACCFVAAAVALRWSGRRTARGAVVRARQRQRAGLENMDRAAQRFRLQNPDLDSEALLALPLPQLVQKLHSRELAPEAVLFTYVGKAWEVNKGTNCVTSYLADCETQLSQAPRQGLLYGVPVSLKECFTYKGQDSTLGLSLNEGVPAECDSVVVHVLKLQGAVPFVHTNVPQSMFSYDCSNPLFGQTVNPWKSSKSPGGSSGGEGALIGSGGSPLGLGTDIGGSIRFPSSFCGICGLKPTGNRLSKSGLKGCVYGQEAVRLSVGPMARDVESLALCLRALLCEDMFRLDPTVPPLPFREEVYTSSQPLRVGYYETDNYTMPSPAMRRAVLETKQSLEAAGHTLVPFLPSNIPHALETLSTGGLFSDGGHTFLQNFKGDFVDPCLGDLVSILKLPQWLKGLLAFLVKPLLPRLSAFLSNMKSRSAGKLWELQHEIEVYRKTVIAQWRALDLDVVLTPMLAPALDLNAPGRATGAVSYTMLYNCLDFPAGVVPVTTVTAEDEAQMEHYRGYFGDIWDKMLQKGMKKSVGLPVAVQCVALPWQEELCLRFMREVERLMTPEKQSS
How it was run: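 Homogenate of SK-N-MC cells stably transfected with human FAAH, incubated with compound and 80 nM final ³H-anandamide for 1 h at rt. Released ³H-ethanolamine separated from substrate on activated charcoal and counted by scintillation. ">" values reflect solubility limit or top concentration tested.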

SMILES | IC50 (Rat FAAH) | IC50 (FAAH)
O=C(c1ncco1)C1CCN(Cc2cccc(F)c2)CC1 [Example 31, [1-(3-Fluoro-benzyl)-piperidin-4-yl]-oxazol-2-yl-methanone] | 1400 nM | 303 nM
O=C(c1ncco1)C1CCN(Cc2ccc(OC(F)(F)F)cc2)CC1 [Example 36, Oxazol-2-yl-[1-(4-trifluoromethoxy-benzyl)-piperidin-4-yl]-methanone] | 40 nM | 25 nM
CS(=O)(=O)c1cc(Br)ccc1CN1CCC(C(=O)c2ncco2)CC1 [Example 25, [1-(4-Bromo-2-methanesulfonyl-benzyl)-piperidin-4-yl]-oxazol-2-yl-methanone] | 23 nM | 13 nM
O=C(c1ncco1)C1CCN(Cc2ccccc2Cl)CC1 [Example 33, [1-(2-Chloro-benzyl)-piperidin-4-yl]-oxazol-2-yl-methanone] | 890 nM | 156 nM
CCOc1cccc(CN2CCC(C(=O)c3ncco3)CC2)c1 [Example 29, [1-(3-Ethoxy-benzyl)-piperidin-4-yl]-oxazol-2-yl-methanone] | 1400 nM | 170 nM
O=C(c1ncco1)C1CCN(Cc2ccc(C(F)(F)F)cc2)CC1 [Example 19] | 15 nM | 10 nM
COc1ccc(C(=O)N2CCC(C(=O)c3ncco3)CC2)cc1 [Example 9, [1-(4-Methoxy-benzoyl)-piperidin-4-yl]-oxazol-2-yl-methanone] | > 10000 nM | 7000 nM
O=C(c1ncco1)C1CCN(Cc2ccc(F)c(F)c2)CC1 [Example 38, [1-(3,4-Difluoro-benzyl)-piperidin-4-yl]-oxazol-2-yl-methanone] | 76 nM | 30 nM
COc1ccc(CN2CCC(C(=O)c3ncco3)CC2)cc1OC [Example 43, [1-(3,4-Dimethoxy-benzyl)-piperidin-4-yl]-oxazol-2-yl-methanone] | 6000 nM | 3000 nM
CC(C)COc1cccc(CN2CCC(C(=O)c3ncco3)CC2)c1 [Example 16, [1-(3-Isobutoxy-benzyl)-piperidin-4-yl]-oxazol-2-yl-methanone] | 975 nM | 31 nM
O=C(c1ncco1)C1CCN(Cc2ccc3cccnc3n2)CC1 [Example 41, (1-[1,8]Naphthyridin-2-ylmethyl-piperidin-4-yl)-oxazol-2-yl-methanone] | 1750 nM | 309 nM

Next, values leading:

IC50 (Rat FAAH) | IC50 (FAAH) | SMILES
9 nM | 4 nM | O=C(c1ncco1)C1CCN(Cc2ccc3ccccc3c2)CC1 [Example 88, (1-Naphthalen-2-ylmethyl-piperidin-4-yl)-oxazol-2-yl-methanone]
87 nM | 17 nM | Cc1ccc2nc(Cl)c(CN3CCC(C(=O)c4ncco4)CC3)cc2c1 [Example 74, [1-(2-Chloro-6-methyl-quinolin-3-ylmethyl)-piperidin-4-yl]-oxazol-2-yl-methanone]
1200 nM | 208 nM | COc1ccc(CN2CCC(C(=O)c3ncco3)CC2)cc1 [Example 61, [1-(4-Methoxy-benzyl)-piperidin-4-yl]-oxazol-2-yl-methanone]
91 nM | 37 nM | Cn1c(CN2CCC(C(=O)c3ncco3)CC2)nc2ccccc21 [Example 49, [1-(1-Methyl-1H-benzoimidazol-2-ylmethyl)-piperidin-4-yl]-oxazol-2-yl-methanone]
370 nM | 782 nM | CC(c1cccc(C(F)(F)F)c1)N1CCC(C(=O)c2ncco2)CC1 (stereo not drawn) [Example 91, Oxazol-2-yl-{1-[1-(3-trifluoromethyl-phenyl)-ethyl]-piperidin-4-yl}-methanone]
1700 nM | 315 nM | COc1ccc(CN2CCC(C(=O)c3ncco3)CC2)cn1 [Example 81, [1-(6-Methoxy-pyridin-3-ylmethyl)-piperidin-4-yl]-oxazol-2-yl-methanone]
8 nM | 4 nM | Cn1c(CN2CCC(C(=O)c3ncco3)CC2)cc2ccccc21 [Example 50, [1-(1-Methyl-1H-indol-2-ylmethyl)-piperidin-4-yl]-oxazol-2-yl-methanone]
